From patent US20150218516A1, “COMPOSITIONS AND METHODS FOR ENHANCING IMMUNE RESPONSES MEDIATED BY ANTIGEN-PRESENTING CELLS” (The Board of Regents of the University of Nebraska, priority 2007, published 2015)
“Also recorded” adds a separate entry of the source. Non-standard residues stand in square brackets, D forms with d. Residues, ends and D or L forms follow the SMILES beside them.

Experiments:
Caki-1 cells = assay: In vitro cytotoxicity of T lymphocytes cultured with peptide-pulsed dendritic cells against Caki-1; format: cell-based, human; conditions: cord blood-derived T lymphocytes cultured with dendritic cells exposed to the peptide
[1] = test system: P815S (HBsAg transfectant) target cells; assay: HBsAg-specific CTL response of immunized mice, 51Cr-release cytotoxicity assay; format: in vivo, BALB/c mice; conditions: for % Specific Lysis: s.c. in PBS
Description: (§1) Groups of six to eight BALB/c mice were given bilateral s.c. injections in the inguinal area with (100 al each side) of a PBS solution containing 50-100 μg of the peptides. Booster injections were given s.c. in the inguinal region at 21-day intervals. Sera for Ab analysis were obtained by retro-orbital bleeds of mice under CO2 narcosis.
Three weeks after secondary) (2° immunization and two weeks after tertiary)(3° immunization, two to three mice from each experimental group were sacrificed by cervical dislocation and their spleens removed aseptically. Pooled splenic single-cell suspensions were prepared in RPMI-1640 medium (Sigma, St. Louis, Mo.) containing 10% FBS (Hyclone, Salt Lake City, Utah) and the following supplements: 10 mM HEPES buffer, 50 μM 2-ME, 2 mM L-glutamine, 50 μg/ml gentamicin sulfate, 100 Um′ penicillin, and 50 μg/ml streptomycin (all supplements from Sigma). This supplemented complete medium is designated RP10-SC. For culture, 75×10^6 pooled spleen cells in 5 ml of RP10-SC were pipetted into a 25 cm^2 T-flask (Corning). Next, 5 ml of RP 10-SC containing 150 nM of synthetic, L^d MHC class I-restricted peptide, […] (SEQ ID NO:12) were added to the flask. The flasks were incubated undisturbed in an upright position at 37° C. in 5% CO2. After 4 days of incubation, the cells were recovered from the T-flasks, washed once by centrifugation in fresh RP10-SC, resuspended in 5 ml RP10-SC, counted, and adjusted to 5×10^6 viable cells/ml.
The specific cell target used for measuring CTL activity was P815S, a transfectant cell line of P815 (H-2^d) expressing the HBsAg (14). P815S was grown in RP10-SC medium containing 400 μg/ml geneticin disulfate (G418, Sigma). The parental H-2^d mastocytoma cell line, P815 (ATTC #TIB64) grown in RP10-SC medium, was used as a non-specific target for CTL assays to measure % non-specific lysis.
The target cells, either P815S or P815, were washed 2 times in RP10-SC. For labeling, 5×10^6 target cells were mixed with 250 μCi ^51Cr-sodium chromate[400-1200 Ci (14.8-44.4 TBq)]/[…]; NEN Dupont, Boston, Mass.) in a 1.0 ml volume in a 50 ml conical tube and incubated in a 37° C. water bath for 90 mins. After incubation, the labeled cells were washed 3 times by centrifugation using 15 ml volumes of fresh RP10-SC and allowed to stand at room temperature for 30 mins. The pelleted cells were resuspended in RP10-SC at 1×10^6 cells/ml.
The recovered splenic effector cells at 5×10^6 cells/ml were serially diluted in triplicate in wells of round-bottom 96 well plates (Corning, 25850) in a total volume of 100 al/well and using RP10-SC as the diluent. Next, 100 μl volumes of ^51Cr-labeled targets, P815S or P815, at 1×10^6 cells/ml were added to the wells. Maximum release (MR) wells contained 100 al of target cells and 100 al of 2% (v/v) Tween 20 while spontaneous release (SR) wells contained labeled cells in medium alone. Effector-to-target ratios of 50:1, 25:1, 12.5:1, and 6.25:1 were routinely employed. The plates were centrifuged at 400×g and incubated at 37° C. in 5% CO2 for 4 hrs. After incubation, the supernatant fractions in the wells were collected using a Skatron Supernatant Collection System (Skatron Instruments, Sterlin, Va.). The amount of ^51Cr radioactivity in the supernatant fractions was measured using a Wallac 1470 Wizard gamma counter (Turku, Finland).

human PMNs = assay: MPO release from human PMNs; format: cell-based
Description: (§2) Statistical analysis of the values obtained from pharmacologic assays was performed using one-way analysis of variance (ANOVA).

human umbilical artery = assay: Smooth muscle contraction of human umbilical artery; format: cell-based
Description: as §2

[2] = test system: immunizing peptide and free peptides; assay: ELISA of sera from mice immunized with HBsAg CTL epitope-C5a agonist constructs; format: in vivo; conditions: sera after three injections
Description: as §1
Thus, it was of interest to determine whether sera from mice immunized with the control peptides and epitope-C5a agonist constructs contained Ab directed against any of the peptides. […] (SEQ ID NO:12), […]

LNCaP cells = test system: LNCaP cells
Description: An exemplary in vitro cytotoxicity assay comprises the following steps. Antigen presenting cells, such as dendritic cells, were obtained from bone marrow or blood. Dendritic cells were preferentially differentiated in culture through the addition of IL-4, GM-CSF, and TNFα for 7-10 days. Dendritic cells were then pulsed with peptides for 18 hours. MNCs were also isolated from spleens or blood (e.g., cord or peripheral) and cultured in IL-2 and GM-CSF for 7-10 days for enhanced lymphocyte proliferation. The pulsed dendritic cells were then co-cultured with the lymphocyte-enriched MNCs at a 1:10 ratio for 4 days. Lymphocyte-enriched MNC effector cells were then co-cultured with tumor target cells labeled with the bioactive fluorescent dye Calcein AM for 4 hours. Lysed cells were detected by photometrically measuring the released fluorescent dye.
Certain prostate carcinomas express prostate-specific membrane antigen (PSMA). […] The fusion peptides were administered to APCs which were subsequently presented to a lymphocyte-enriched population from cord blood as described hereinabove in Example 6. After antigen presentation by pulsed DC in co-culture, CTLs were tested for their ability to lyse three different target cell monolayers in an in vitro cytotoxicity assay. […] The fusion peptides were also administered to APCs which were subsequently presented to a adult peripheral blood-derived CTLs. In vitro cytotoxicity against the human prostate cancer cell line LNCaP was then assessed using the bioactive fluorescent dye calcein AM (FIG. 11D).

SKmel-28 = assay: In vitro cytotoxicity of T lymphocytes cultured with peptide-pulsed dendritic cells against SKmel-28; format: cell-based, human; conditions: UCB or PBMC derived T lymphocytes cultured with dendritic cells exposed to the peptide
Description: (§3) The tumor peptide antigen tyrosinase is expressed on more than 70% of human melanoma cells that are human leukocyte antigen (HLA) A2 positive. […] The dendritic cells, presumably expressing the tyrosinase epitope, were then cultured with a lymphocyte-enriched cell population which was then cultured with melanoma cells to determine melanoma cell killing using a cytotoxic T lymphocyte assay.

[3] = test system: A-375 cell line (melanoma); format: cell-based, human
Description: as §3

CSCC[C@H](NC(=O)[C@H](CC(=O)O)NC(=O)[C@H](CCCCN)NC(=O)[C@H](Cc1ccccc1)NC(=O)[C@H](CO)NC(=O)[C@@H](N)Cc1ccc(O)cc1)C(=O)N1CCC[C@H]1C(=O)N(C)[C@@H](CC(C)C)C(=O)N[C@H](C)C(=O)N[C@@H](CCCNC(=N)N)C(=O)O [YSFKDMP(MeL)aR]
cytotoxicity against tyrosinase-negative Caki-1 (in words) (Caki-1 cells): incapable of killing

CC[C@H](C)[C@H](N)C(=O)N1CCC[C@H]1C(=O)N[C@@H](CCC(N)=O)C(=O)N[C@@H](CO)C(=O)N[C@@H](CC(C)C)C(=O)N[C@@H](CC(=O)O)C(=O)N[C@@H](CO)C(=O)N[C@@H](Cc1c[nH]c2ccccc12)C(=O)N[C@@H](Cc1c[nH]c2ccccc12)C(=O)N[C@H](C(=O)N[C@@H](CO)C(=O)N[C@@H](CC(C)C)C(=O)N[C@@H](CCCNC(=N)N)C(=O)N[C@@H](CCCNC(=N)N)C(=O)N[C@@H](Cc1ccc(O)cc1)C(=O)N[C@@H](CO)C(=O)N[C@@H](Cc1ccccc1)C(=O)N[C@@H](CCCCN)C(=O)N1CCC[C@H]1C(=O)N[C@@H](CCSC)C(=O)N1CCC[C@H]1C(=O)N[C@@H](CC(C)C)C(=O)N[C@H](C)C(=O)N[C@@H](CCCNC(=N)N)C(=O)O)[C@@H](C)O (H-IPQSLDSWWTSLRRYSFKPMPL[dA]R-OH)
% Specific Lysis ([1]; Effector:Target 6.25:1, boost day 21, spleen cells day 42): 9% | % Specific Lysis ([1]; Effector:Target 12.5:1, boost day 21, spleen cells day 42): 14% | % Specific Lysis ([1]; Effector:Target 25:1, boost day 21, spleen cells day 42): 23% | % Specific Lysis ([1]; Effector:Target 50:1, boost day 21, spleen cells day 42, restimulated 4 days with S28-39): 32% | Ag-specific CTL response (in words) ([1]; two or three s.c. injections at 21 day intervals, no added adjuvant): significant CTL response; also recorded: generated an Ag-specific CTL response; also recorded: robust CTL activity | EC50 (human PMNs; 50% maximum release of myeloperoxidase): 540 nM | pD2 ± SE (human PMNs; −log EC50 (M), mean ± SE, n=3): 6.27 ± 0.29 | EC50 (human umbilical artery; concentration resulting in 50% maximum contraction): 161 nM | agonist behaviour relative to natural C5a (in words) (human umbilical artery; umbilical artery contraction and MPO release assays): full agonists | pD2 ± SE (human umbilical artery; −log EC50 (M), mean ± SE, n=3): 6.79 ± 0.31 | serum binding to free peptides […] or YSFKPMPLaR [2]: did not bind

YMNGTMSQV [tyrosinase antigen]
cytotoxicity against LNCaP (in words) (LNCaP cells): did not exhibit significant cytotoxicity | cytotoxicity against SKmel-28 (in words) (SKmel-28): minimal cytotoxicity | cytotoxicity against A-375 (in words) [3]: minimal cytotoxicity
